In general, IC50 refers to the midpoint of a concentration-inhibition curve. Read a high IC50 as lower potency. By GI50 is commonly meant the concentration that inhibits growth by half. A higher GI50 goes with lower sensitivity of the cells.

One assay concerns the target T1, TIP48/TIP49 complex (Homo sapiens, UniProt Q9Y230+Q9Y265).
T1 construct: made in house; host or cells: E. coli
Nature of the assay: ATPase assay of TIP48/TIP49 complex (ADP-Glo). In kind it is biochemical. The following applies: concentration at which the ATPase activity was inhibited by 50%. The essentials: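 Compound was tested over 10 four-fold concentrations, 200 μM down to 0.0007 μM at 2% DMSO, against E. coli-derived human rTIP48/rTIP49 for 1.5 h at room temperature, pH 7.5 with ATP. ATP hydrolysis was read as ADP-Glo luminescence, normalised to complex-only and no-complex wells, then fitted to dose-response curves.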
(In ADP-Glo the light output rises with the ADP produced.)

Another assay deals with U266B1. Kind of assay: Cell growth inhibition test, U266B1. In kind it is cell-based. As to conditions: Homo sapiens, 72 h; U266B1, Multiple myeloma, 3 days, CellTiter-Glo. Here is the method:
(§1) A cell growth inhibition test was carried out by treating a cultured cancer cell line with a test compound for a given period and then counting the number of viable cells by CellTiter-Glo Luminescent Cell Viability Assay (manufactured by Promega Corp.).
(§2) The following cells were inoculated to a 384-well plate containing the compound prepared in advance at predetermined concentrations. […]
(§3) The cells thus inoculated were cultured at 37° C. for 3 days under 5% CO2. […] Then, luminescence intensity was measured using a plate reader.
(§4) The number of viable cells and luminescence intensity have been confirmed to correlate with each other. Therefore, the rate of cell growth was calculated according to the following expression: Rate of cell growth (T/C %) of a test compound-supplemented well=100×[(B−C)/(A−C)] wherein A represents the luminescence intensity (final culture date) of a test compound-free well; B represents the luminescence intensity (final culture date) of a test compound-containing well; and C represents the luminescence intensity (day of cell inoculation) of a well at the start of contact of the cells with the test compound.
(§5) T/C % at the concentration of each of the serially diluted test compounds was determined. […]

The next assay deals with NCI-H1975. Nature of the assay: Cell growth inhibition test, NCI-H1975. In kind it is cell-based. The following applies: Homo sapiens, 72 h; NCI-H1975, Lung cancer, 3 days, CellTiter-Glo. How it is done:
as §1, §2, §3, §4, §5

The subject of another assay is COLO 829. Nature of the assay: Cell growth inhibition test, COLO 829. In kind it is cell-based. As to conditions: Homo sapiens, 72 h; COLO 829, Skin cancer, 3 days, CellTiter-Glo. How it is done: as §1, §2, §3, §4, §5

T1 sequence (Q9Y230 whole entry): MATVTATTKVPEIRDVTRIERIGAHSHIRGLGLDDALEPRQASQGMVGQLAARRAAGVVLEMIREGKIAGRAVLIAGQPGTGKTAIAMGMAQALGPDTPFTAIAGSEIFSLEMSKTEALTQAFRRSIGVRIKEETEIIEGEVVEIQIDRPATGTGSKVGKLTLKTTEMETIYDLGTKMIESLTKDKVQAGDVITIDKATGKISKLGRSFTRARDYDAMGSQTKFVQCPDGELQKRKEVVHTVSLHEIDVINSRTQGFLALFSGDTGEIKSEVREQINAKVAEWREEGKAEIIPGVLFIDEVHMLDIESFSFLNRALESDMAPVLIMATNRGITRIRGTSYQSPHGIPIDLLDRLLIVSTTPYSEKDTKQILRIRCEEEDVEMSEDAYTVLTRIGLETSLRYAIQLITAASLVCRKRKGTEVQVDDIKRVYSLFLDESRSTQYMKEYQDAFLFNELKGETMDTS
T1 sequence (Q9Y265 whole entry): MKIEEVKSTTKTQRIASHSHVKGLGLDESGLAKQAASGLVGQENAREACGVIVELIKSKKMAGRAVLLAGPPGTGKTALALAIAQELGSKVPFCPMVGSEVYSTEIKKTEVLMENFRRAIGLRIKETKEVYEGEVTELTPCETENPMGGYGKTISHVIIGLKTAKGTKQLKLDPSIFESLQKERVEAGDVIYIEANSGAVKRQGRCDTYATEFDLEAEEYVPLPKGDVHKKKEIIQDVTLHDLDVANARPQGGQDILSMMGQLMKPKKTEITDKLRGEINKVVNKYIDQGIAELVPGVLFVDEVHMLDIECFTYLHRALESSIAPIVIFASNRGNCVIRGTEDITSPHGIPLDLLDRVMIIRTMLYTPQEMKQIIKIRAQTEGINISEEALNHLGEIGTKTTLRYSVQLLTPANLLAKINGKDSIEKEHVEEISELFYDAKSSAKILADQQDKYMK

Consider `CCOc1ccc(Cl)cc1C(=O)NCC(C)(C)CC(=O)Nc1c([C@H](C)CN(C)C)n(C)n(-c2ccccc2)c1=O` [Example 68, 5-Chloro-N-[4-({5-[(1R)-2-(dimethylamino)-1-methylethyl]-1-methyl-3-oxo-2-phenyl-2,3-dihydro-1H-pyrazol-4-yl}amino)-2,2-dimethyl-4-oxobutyl]-2-ethoxybenzamide], for which half-maximal inhibition on TIP48/TIP49 complex (IC50) required 70 nM. In addition, the 50% growth inhibitory concentration (GI50) was 220 nM in the assay on U266B1, 490 nM in the assay on NCI-H1975 and 200 nM in the assay on COLO 829.

`CCOc1cc(F)c(Cl)cc1C(=O)NCC(C)(C)CC(=O)Nc1c(COC)n(C)n(-c2ccccc2)c1=O` [Example 113, 5-Chloro-2-ethoxy-4-fluoro-N-(4-{[5-(methoxymethyl)-1-methyl-3-oxo-2-phenyl-2,3-dihydro-1H-pyrazol-4-yl]amino}-2,2-dimethyl-4-oxobutyl)benzamide] yielded an IC50 against TIP48/TIP49 complex of 39 nM. In addition, the figures for the GI50 in the assay with U266B1, in the assay on NCI-H1975 and in the assay on COLO 829 were 440 nM, 810 nM and 350 nM, respectively.

As for `CCOc1ncc(Cl)cc1C(=O)NCC(C)(C)CC(=O)Nc1c([C@H](C)CN(C)C)n(C)n(-c2ccccc2)c1=O` [Example 73, 5-Chloro-N-[4-({5-[(1R)-2-(dimethylamino)-1-methylethyl]-1-methyl-3-oxo-2-phenyl-2,3-dihydro-1H-pyrazol-4-yl}amino)-2,2-dimethyl-4-oxobutyl]-2-ethoxypyridine-3-carboxamide], 48 nM corresponded to half-maximal inhibition on TIP48/TIP49 complex (IC50). For the same molecule, the GI50 with U266B1 was determined as 620 nM; in the assay with NCI-H1975, 900 nM; in the assay with COLO 829 it was 480 nM.

The values are drawn from patent US20170107207A1, “AMINOPYRAZOLONE DERIVATIVE” (DAIICHI SANKYO COMPANY, LIMITED, priority 2014, published 2017).
